Assay [1] has as its target T1, HLA-B*57:01 (Homo sapiens, UniProt P01889, D201E/D98Y/E176V/E187L/E204Q/E69M/E70A/G107R/I90N/K202T/L105A/L119I/N104I/N87E/Q89R/Q94S/R106L/R155S/R180L/R86G/S101N/S121V/S35A/S48A/T118I/V36M/Y140S/Y91M). The assay is described as follows: MHC refolding ELISA (capture ELISA of refolded MHC-peptide complex). The assay is classed as biochemical. More on the design: Denatured heavy chain (final concentration 1 μM). The procedure:
FIG. 13. Primary assay: refolding ELISA.
Refolding reactions were set up in 96-well plates on ice by the successive addition of the following: • 1. Refolding Buffer (400 mM Arg-HCl, 100 mM Tris 8.0, 5 mM glutathione (GSH), 0.5 mM glutathione disulfide (GSSG), 1× cOmplete protease inhibitor cocktail); • 2. Beta-2-microglobulin (final concentration 2 μM). • 3. Peptide (final concentration 40 μM). • 4. Denatured heavy chain (final concentration 1 μM).
[…] Meanwhile, 96-well ELISA plate (Coming 3361) was treated with W6/32 (5 μg/mL) at 4° C. overnight. The plate was washed with PBS (2×200 μL), then blocked with 375 μL 3% BSA/PBS at 23° C. for 1 h. After washing the plate with PBST (3×200 μL), 90 μL 1% BSA/PBS was added to each well.
Detection of refolding was performed as follows: • 1. Add 10 μL of the refolding mixture to each well of the ELISA plate. • 2. Incubate the plate with shaking at 23° C. for 1 h. • 3. Wash plate with 1% BSA/PBS (3×200 μL). • 4. Add 50 μL BBM.1-HRP (1 μg/mL in 1% BSA/PBS) and incubate the plate with shaking at 23° C. for 1 h. • 5. Wash plate with PBST (3×200 μL). • 6. Wash plate with PBS (1×100 μL). • 7. Add 50 μL TMB Ultra and incubate the plate with shaking for 5 min. • 8. Stop the reaction by addition of 20 μL 2.0 M sulfuric acid. • Read absorbance at 450 nm within 10 min. […]
On the technique in general: In an ELISA, binding on a coated surface is turned into a signal by an enzyme label.

In assay [2] the target is T1, HLA-B*57:01. Conditions: PepV HSITYLLPV; known; cited from earlier work.

Regarding `CNS(=O)(=O)c1cc(Nc2nccc(N(C)c3ccc4nn(C)c(C)c4c3)n2)ccc1C` [09-045B], the “MHC-peptide complex formation after 72 h” value in assay [1] (40 μM G12V 7-16, 1% DMSO, 10° C., 72 hours) was “may be less susceptible to this instability”.

For the molecule `Nc1nc(NC2CC2)c2ncn([C@H]3C=C[C@@H](CO)C3)c2n1` [abacavir], in assay [1] (peptide panel VVVGAVGVGG/A/V/I/K/W and HSITYLLPV (FIG. 8, FIG. 9)), the “stabilization of the presentation of mutant K-Ras peptides by HLA-B*57:01” value is given as “induced stabilization”. For the same molecule, in assay [2], the “stabilization of PepV in HLA-B*57:01” value is listed as “stabilized”.

Values taken from patent US20230111132A1, “STABILIZATION OF MHC COMPLEXES” (The Regents of the University of California, priority 2019, published 2023).
